# From ChEMBL document CHEMBL3867430, “Novel 3,4-seco bile acid diamides as selective anticancer proliferation and migration agents” (Eur J Med Chem, 2016)
# How the values were obtained:
# [1] = Antiproliferative activity against human PC3M cells after 48 hrs by SRB assay; assay type: functional, cell-based; settings: PC-3M
# [2] = Antiproliferative activity against human HT-29 cells after 48 hrs by SRB assay; assay type: functional, cell-based; settings: HT-29, 48 h
# [3] = Antiproliferative activity against human ES2 cells after 48 hrs by SRB assay; assay type: functional, cell-based; settings: ES-2, 48 h
# [4] = Antiproliferative activity against HAF cells after 48 hrs by SRB assay; assay type: cell-based; settings: Homo sapiens
# [5] = Selectivity index, ratio of IC50 for HAF cells to IC50 for human PC3M cells; assay type: functional
# [6] = Selectivity index, ratio of IC50 for HAF cells to IC50 for human HT-29 cells; assay type: functional
# [7] = Selectivity index, ratio of IC50 for HAF cells to IC50 for human ES2 cells; assay type: functional
smiles,measurement,setting,value
C=C(C)C1CC[C@H]2[C@@H]3CC[C@H]([C@H](C)CCC(=O)N4CCCC4)[C@@]3(C)CC[C@@H]2[C@@]1(C)CCC(=O)N1CCCC1 (some centres undefined),IC50,[1],32.4 µM
same,IC50,[2],23.7 µM
same,IC50,[3],9.25 µM
C=C(C)C1CC[C@H]2[C@@H]3CC[C@H]([C@H](C)CCC(=O)N(CC)CC)[C@@]3(C)CC[C@@H]2[C@@]1(C)CCC(=O)N(CC)CC (some centres undefined),IC50,[1],11.1 µM
same,IC50,[2],6.88 µM
same,IC50,[3],14.2 µM
same,IC50,[4],56.2 µM
same,Ratio IC50,[5],5.1
same,Ratio IC50,[6],8.1
same,Ratio IC50,[7],4
C=C(C)C1CC[C@H]2[C@@H]3CC[C@H]([C@H](C)CCC(=O)N4CCOCC4)[C@@]3(C)CC[C@@H]2[C@@]1(C)CCC(=O)N1CCOCC1 (some centres undefined),IC50,[1],22.5 µM
same,IC50,[2],16.6 µM
same,IC50,[3],29.6 µM
C=C(C)C1CC[C@H]2[C@@H]3CC[C@H]([C@H](C)CCC(=O)O)[C@@]3(C)CC[C@@H]2[C@@]1(C)CCC(=O)O (some centres undefined),IC50,[1],> 80 µM
same,IC50,[2],> 80 µM
same,IC50,[3],> 80 µM
C=C(C)C1CC[C@H]2[C@@H]3CC[C@H]([C@H](C)CCC(=O)n4cccn4)[C@@]3(C)CC[C@@H]2[C@@]1(C)CCC(=O)n1cccn1 (some centres undefined),IC50,[1],> 80 µM
same,IC50,[2],> 80 µM
same,IC50,[3],> 80 µM
C#CCNC(=O)CC[C@@H](C)[C@H]1CC[C@H]2[C@@H]3CCC(C(=C)C)[C@](C)(CCC(=O)NCC#C)[C@H]3CC[C@]12C (some centres undefined),IC50,[1],50.4 µM
same,IC50,[2],85.5 µM
same,IC50,[3],3.11 µM
same,IC50,[4],61.9 µM
same,Ratio IC50,[7],20
C=C(C)C1CC[C@H]2[C@@H]3CC[C@H]([C@H](C)CCC(=O)N4CCN(C)CC4)[C@@]3(C)CC[C@@H]2[C@@]1(C)CCC(=O)N1CCN(C)CC1 (some centres undefined),IC50,[1],5.08 µM
same,IC50,[2],1.93 µM
same,IC50,[3],3.63 µM
same,IC50,[4],15.5 µM
same,Ratio IC50,[5],3
same,Ratio IC50,[6],8
same,Ratio IC50,[7],4.3
C=C(C)C1CC[C@H]2[C@@H]3CC[C@H]([C@H](C)CCC(=O)N4CCN(c5ccccc5F)CC4)[C@@]3(C)CC[C@@H]2[C@@]1(C)CCC(=O)N1CCN(c2ccccc2F)CC1 (some centres undefined),IC50,[1],> 80 µM
same,IC50,[2],> 80 µM
same,IC50,[3],> 80 µM
C=C(C)C1CC[C@H]2[C@@H]3CC[C@H]([C@H](C)CCC(=O)NC4CC4)[C@@]3(C)CC[C@@H]2[C@@]1(C)CCC(=O)NC1CC1 (some centres undefined),IC50,[1],17 µM
same,IC50,[2],> 80 µM
same,IC50,[3],> 80 µM
C=C(C)C1CC[C@H]2[C@@H]3CC[C@H]([C@H](C)CCC(=O)O)[C@@]3(C)CC[C@@H]2[C@@]1(C)CCC(=O)N1CCN(C)CC1 (some centres undefined),IC50,[1],> 80 µM
same,IC50,[2],> 80 µM
same,IC50,[3],53.9 µM
CC(C)C1CC[C@H]2[C@@H]3CC[C@H]([C@H](C)CCC(=O)N4CCN(C)CC4)[C@@]3(C)CC[C@@H]2[C@@]1(C)CCC(=O)N1CCN(C)CC1 (some centres undefined),IC50,[1],12.7 µM
same,IC50,[2],13.8 µM
same,IC50,[3],8.2 µM
C=C(C)C1CC[C@H]2[C@@H]3CC[C@H]([C@H](C)CCC(=O)NCc4ccccc4)[C@@]3(C)CC[C@@H]2[C@@]1(C)CCC(=O)NCc1ccccc1 (some centres undefined),IC50,[1],13.6 µM
same,IC50,[2],13 µM
same,IC50,[3],> 80 µM
same,IC50,[4],> 50 µM
same,Ratio IC50,[5],>3.7
same,Ratio IC50,[6],>3.9
C=C(C)C1CC[C@H]2[C@@H]3CC[C@H]([C@H](C)CCC(N)=O)[C@@]3(C)CC[C@@H]2[C@@]1(C)CCC(N)=O (some centres undefined),IC50,[1],39.2 µM
same,IC50,[2],36.7 µM
same,IC50,[3],36.9 µM
C=C(C)C1CC[C@H]2[C@@H]3CC[C@H]([C@H](C)CCC(=O)NC(C)C)[C@@]3(C)CC[C@@H]2[C@@]1(C)CCC(=O)NC(C)C (some centres undefined),IC50,[1],7.41 µM
same,IC50,[2],> 80 µM
same,IC50,[3],> 80 µM
same,IC50,[4],> 50 µM
same,Ratio IC50,[5],>6.7
C=C(C)C1CC[C@H]2[C@@H]3CC[C@H]([C@H](C)CCCN4CCN(C)CC4)[C@@]3(C)CC[C@@H]2[C@@]1(C)CCCN1CCN(C)CC1 (some centres undefined),IC50,[1],> 80 µM
same,IC50,[2],> 80 µM
same,IC50,[3],> 80 µM
C[C@H](CCC(=O)O)[C@H]1CC[C@H]2[C@@H]3C[C@H](O)[C@@H]4C[C@H](O)CC[C@]4(C)[C@H]3CC[C@]12C [HYODEOXYCHOLIC_ACID],IC50,[1],> 80 µM
same,IC50,[2],> 80 µM
same,IC50,[3],> 80 µM
C=C(C)C1CC[C@H]2[C@@H]3CC[C@H]([C@H](C)CCC(=O)N4CCN(CC)CC4)[C@@]3(C)CC[C@@H]2[C@@]1(C)CCC(=O)N1CCN(CC)CC1 (some centres undefined),IC50,[1],8.47 µM
same,IC50,[2],6.19 µM
same,IC50,[3],12.5 µM
C=C(C)C1CC[C@H]2[C@@H]3CC[C@H]([C@H](C)CCC(=O)N4CCN(C5CCCCC5)CC4)[C@@]3(C)CC[C@@H]2[C@@]1(C)CCC(=O)N1CCN(C2CCCCC2)CC1 (some centres undefined),IC50,[1],12 µM
same,IC50,[2],3.17 µM
same,IC50,[3],17 µM
C[C@H](CCC(=O)O)[C@H]1CC[C@H]2[C@@H]3CC[C@@H]4C[C@H](O)CC[C@]4(C)[C@H]3C[C@H](O)[C@]12C [DEOXYCHOLIC ACID],IC50,[1],> 80 µM
same,IC50,[2],> 80 µM
same,IC50,[3],> 80 µM
C=C(C)C1CC[C@H]2[C@@H]3CC[C@H]([C@H](C)CCC(=O)N4CCN(C(C)C)CC4)[C@@]3(C)CC[C@@H]2[C@@]1(C)CCC(=O)N1CCN(C(C)C)CC1 (some centres undefined),IC50,[1],1.66 µM
same,IC50,[2],9.91 µM
same,IC50,[3],6.68 µM
same,IC50,[4],27 µM
same,Ratio IC50,[5],16.3
same,Ratio IC50,[6],2.7
same,Ratio IC50,[7],4
C[C@H](CCC(=O)O)[C@H]1CC[C@H]2[C@@H]3[C@H](O)C[C@@H]4C[C@H](O)CC[C@]4(C)[C@H]3CC[C@]12C [CHENODIOL],IC50,[1],> 80 µM
same,IC50,[2],> 80 µM
same,IC50,[3],> 80 µM
C=C(C)C1CC[C@H]2[C@@H]3CC[C@H]([C@H](C)CCC(=O)N4CCN(c5ccccc5)CC4)[C@@]3(C)CC[C@@H]2[C@@]1(C)CCC(=O)N1CCN(c2ccccc2)CC1 (some centres undefined),IC50,[1],> 80 µM
same,IC50,[2],> 80 µM
same,IC50,[3],> 80 µM
C=C(C)C1CC[C@H]2[C@@H]3CC[C@H]([C@H](C)CCC(=O)OC)[C@@]3(C)CC[C@@H]2[C@@]1(C)CCC(=O)N1CCN(C)CC1 (some centres undefined),IC50,[1],41.8 µM
same,IC50,[2],13.7 µM
same,IC50,[3],31.7 µM
C[C@H](CCC(=O)O)[C@H]1CC[C@H]2[C@@H]3CCC(C(C)(C)O)[C@](C)(CCC(=O)O)[C@H]3CC[C@]12C (some centres undefined),IC50,[1],> 80 µM
same,IC50,[2],> 80 µM
same,IC50,[3],> 80 µM
C=C(C)C1CC[C@H]2[C@@H]3CC[C@H]([C@H](C)CCC(=O)Nc4ccc(F)cc4)[C@@]3(C)CC[C@@H]2[C@@]1(C)CCC(=O)Nc1ccc(F)cc1 (some centres undefined),IC50,[1],> 80 µM
same,IC50,[2],> 80 µM
same,IC50,[3],> 80 µM
